# Laboratory results published in patent US8148403B2, “Substituted piperidyl-propane-thiols” (Boehringer Ingelheim International GmbH, priority 2006, dated 2012).
smiles,measurement,value
CCc1c(C2CCN(CCCSc3ccc(F)cc3)CC2)c2ccc(F)cc2n1-c1nc(C)ccc1O [Example 3],melting point,142 °C
